Assay results as given in ChEMBL document CHEMBL4354786, “Prodrug strategies for targeted therapy triggered by reactive oxygen species” (Medchemcomm, 2019).

Test: Drug metabolism in pH 7.5 HEPES buffer assessed as hydrolysis after 24 hrs

O=C(O)c1ccc(S(=O)(=O)On2c(C(=O)NCc3ccc(-c4ccccc4)cc3)cccc2=O)cc1
Drug metabolism: 100%

O=C(NCc1ccc(-c2ccccc2)cc1)c1cccc(=O)n1OS(=O)(=O)c1ccccc1
Drug metabolism: 100%
